# According to US20260262641A1 (priority 2023, published 2026):
# Key:
# [1] = test system: couch mite (Aceria cynodoniensis); assay: Field trial in Santa Ana couch turfgrass, control of couch mite (Example 3); assay type: in vivo; conditions: for Biomass and vigor (0-10), 42 DAA2 / Biomass and vigor (0-10), Pre-spray: 0 to 10 rating scale; for Biomass and vigor (0-10), 42 DAA2 / NDVI, 42 DAA2 / % Incidence mite damage, 42 DAA2: product rate mL/ha: Prophesy 500, Thumper 2000 (+ BS 1000 0.25% v/v); for Biomass and vigor (0-10), 42 DAA2 / NDVI, 42 DAA2: Fenpyroximate 50 SC 4000; for NDVI, 42 DAA2 / NDVI, Pre-spray: Greenseeker; for % Incidence mite damage, 42 DAA2: 42 days after second application, Fenpyroximate 50 SC 4000 (200 g ai/ha); for Biomass and vigor (0-10), Pre-spray / NDVI, Pre-spray / % Incidence mite damage, Pre-spray: Pre-spray (baseline); for % Incidence mite damage, Pre-spray: witches' broom
# Description: A field trial was conducted in Santa Ana couch turfgrass, to evaluate fenpyroximate for control of couch mite (Aceria cynodoniensis). The trial was located at Terrey Hills Golf and Country Club, New South Wales (−33.668, 151.217). […] All treatments were applied using a hand boom fitted with XR11004 nozzles and in a spray volume of 430 L/ha.
# The incidence of couch mite damage, to the terminal growth point (known as witches' broom) was assessed 42 days after the second application. Turf biomass and vigor were assessed at the same timing on a 0 to 10 rating scale, along with NDVI using a Greenseeker.
# (§1) All data was statistically analyzed using analysis of variance and Fisher's protected least significant different test (Fishers LSD). The level of significance for all tests was P<0.05.
# [2] = test system: redlegged earth mite (H. destructor; RLEM); assay: whole plant or invertebrate; conditions: for LC50: read-out: LC50 (95% CI)
# Description: On the 14th of May 2022, H. destructor were collected from capeweed (Arctotheca calendula) in South Morang, Victoria (−37.625, 145.110), a site with no known history of insecticide application. Mites were collected via suction using a Stihl SH55 blower vacuum, placed in plastic containers with paper towel and vegetation, and transported back to the laboratory, where they were stored at 4° C. until testing.
# Serial dilutions were prepared for each insecticide (Table 1), with the addition of a non-ionic surfactant (Tween 20) at 0.01% to aid the spread of the insecticide and ensure even coating. […] Nine concentrations of pyridaben ranging from the proposed field rate of 1480 mL diluted in 100 L of water (1998 mg a.i./L) to 1×10^−5 were serially diluted and tested along with a water control. Eight concentrations of omethoate, ranging from 10 times the field rate of 100 mL diluted in 100 L of water (290 mg a.i./L) to 1×10^−5, were tested along with a water control. Seven concentrations of bifenthrin, ranging from 10 times the field rate of 40 mL diluted in 100 L of water (100 mg a.i./L) to 1×10^−5, were tested along with a water control. For each insecticide concentration tested, approximately 10 mL of solution was poured into a 15 mL plastic vial and swirled to ensure a complete coating, with excess liquid removed. Six vials were coated per concentration and were left to dry overnight. Control vials were treated in the same way, except water (with the addition of 0.01% Tween) was used.
# Approximately eight individual H. destructor were then placed into each vial along with 2-3 leaves of common vetch (Vicia sativa), which provided food and humidity. Vials were then sealed with a screw lid and placed in a controlled temperature cabinet at 18° C. After 24-hours exposure, mites were scored as alive (moving freely), incapacitated (inhibited movement), or dead (no movement over a 5 second period).
# Dose-response curves were generated by plotting percentage mortality against log concentration. […] Logistic regression is well suited for the analysis of binary response data (e.g., dead/alive). All analyses were conducted using R version 3.3.1 (R Development Core Team 2022).
# [3] = test system: insecticide-resistant population of redlegged earth mite (H. destructor; RLEM); assay: whole plant or invertebrate; conditions: for difference between insecticide-susceptible and resistant populations in response (in words): P < 0.05 level; for LC50: read-out: LC50 (95% CI)
# Description: (§2) The insecticide-susceptible H. destructor population tested in this bioassay was collected from burr medic (Medicago polymorpha) and barley grass (Hordeum leporinum) in Moulamein, NSW (−35.102, 144.026), a site with no known history of insecticide application. […] Mites were collected via suction using a Stihl SH55 blower vacuum, placed in plastic containers with paper towel and vegetation, and transported back to the laboratory, where they were stored at 4° C. until testing.
# (§3) Serial dilutions were prepared for each insecticide (Table 9), with the addition of a non-ionic surfactant (Tween 20) at 0.01% to aid the spread of the insecticide and ensure even coating. […] Nine concentrations of bifenthrin were tested, ranging from 1×10^−5 to 10 times the field rate of 40 mL diluted in 100 L of water (100 mg a.i./L). Seven concentrations of omethoate were tested, ranging from 1×10^−5 to 10 times the field rate of 100 mL in 100 L of water (290 mg a.i./L).
# (§4) Six vials were coated per concentration and were left to dry overnight. Control vials were treated in the same way, except water (with the addition of 0.01% Tween) was used. The next day, eight individual H. destructor were then placed into each vial along with 2-3 leaves of common vetch (Vicia sativa), which provided food and humidity. Vials were then sealed with a screw lid and placed in a controlled temperature cabinet at 18° C. After 24-hours exposure, mites were scored as alive (moving freely), incapacitated (inhibited movement), or dead (no movement over a 5 second period).
# (§5) Dose-response curves were generated by plotting percentage mortality against log concentration. A series of logistic models were used to quantify the sensitivity of H. destructor to each chemical and to test whether any differences in sensitivity were present between the two populations. Logistic regression is well suited for the analysis of binary response data (e.g., dead/alive). Each model included chemical concentration and H. destructor population as fixed-effect predictors, which allowed testing for whether populations had average differences in mortality (i.e., model intercept) via F tests. It was then determined if populations had differences in mortality that were dependent on chemical concentration (i.e., differences in regression slopes) by comparing the inclusion of a population×concentration predictor (i.e., allowing slopes to vary between populations). […] The resulting LC50 values were used to quantify the level of insecticide resistance (resistance ratios) relative to the known insecticide-susceptible population. All analyses were conducted using R version 4.3.1 (R Development Core Team 2023).
# [4] = test system: insecticide-susceptible population of redlegged earth mite (H. destructor; RLEM); assay: whole plant or invertebrate; conditions: Halotydeus destructor, 24 h; for LC50: read-out: LC50 (95% CI)
# Description: as §2, §3, §4, §5
# [5] = test system: redlegged earth mite (H. destructor; RLEM); assay: Field trial in canola, pre- or post-emergent control of RLEM (Example 5); assay type: in vivo, Halotydeus destructor; conditions: application timing B (early post-emergent, 1 to 2 leaf canola)
# Description: A field trial was conducted in canola cv. Garrison, to evaluate fenpyroximate for control of redlegged earth mite (H. destructor; RLEM) as a pre- or post-emergent application. The trial was located at Beverley, Western Australia (−32.2248085, 117.0268493). The canola was sown on 13th June 2023. […] All treatments were applied using a hand boom fitted with flat fan nozzles in a spray volume of 100 L/ha.
# The density of RLEM was assessed 33 days after the second application timing by counting the number of mites per plant.
# as §1
# [6] = Halotydeus destructor, 24 h, read-out: % RLEM mortality
# [7] = Halotydeus destructor, 24 h, read-out: % RLEM mortality, Resistant
# [8] = read-out: % RLEM mortality, Susceptible
molecule,measurement,setting,value
"Clc1ccccc1-c1nnc(-c2ccccc2Cl)nn1 [Prophesy, Clofentezine]","Biomass and vigor (0-10), 42 DAA2",[1],4.9
same,"NDVI, 42 DAA2",[1],0.64
same,"% Incidence mite damage, 42 DAA2",[1],52.0%
same,"Biomass and vigor (0-10), Pre-spray",[1],4.0 a
same,"NDVI, Pre-spray",[1],0.53 a
same,"% Incidence mite damage, Pre-spray",[1],94.0 a %
same,turf biomass and vigor and NDVI (in words),"[1]; versus untreated, P<0.05",also improved
CC(C)(C)c1ccc(CSc2cnn(C(C)(C)C)c(=O)c2Cl)cc1 [Pyridaben],mortality even at the highest rates,"[2]; 24 hours exposure, highest rates tested",less than 50%
same,mortality at 0.02 µg/mL,[2]; [6],0%
same,mortality at 0.2 µg/mL,[2]; [6],0%
same,mortality at 2 µg/mL,[2]; [6],0%
same,mortality at 20 µg/mL,[2]; [6],0%
same,mortality at 60 µg/mL,[2]; [6],0%
same,mortality at 200 µg/mL,[2]; [6],9%
same,mortality at 599 µg/mL,[2]; [6],23.4%
same,mortality at 999 µg/mL,[2]; [6],45.5%
same,mortality at 1998 µg/mL,[2]; [6],27.5%
same,efficacy against RLEM (in words),"[2]; laboratory bioassay, 24 hours exposure",not efficacious
same,highest mortality observed,[2]; range of concentrations tested 0.01998-1998 mg a.i./L,45%
Abamectin [Thumper],"Biomass and vigor (0-10), 42 DAA2",[1],4.4
same,"NDVI, 42 DAA2",[1],0.58
same,"% Incidence mite damage, 42 DAA2",[1],57.0%
same,"Biomass and vigor (0-10), Pre-spray",[1],3.9 a
same,"NDVI, Pre-spray",[1],0.52 a
same,"% Incidence mite damage, Pre-spray",[1],95.3 a %
CC(C)c1cc(Oc2ccccc2)cc(C(C)C)c1NC(=S)NC(C)(C)C [Diafenthiuron],mortality at 0.03 µg/mL,[3]; [7],3.9%
same,mortality at 0.3 µg/mL,[3]; [7],10.6%
same,mortality at 3 µg/mL,[3]; [7],13.2%
same,mortality at 30 µg/mL,[3]; [7],15.7%
same,mortality at 300 µg/mL,[3]; [7],39.5%
same,mortality at 3000 µg/mL,[3]; [7],75.5%
same,mortality at 30000 µg/mL,[3]; [7],100%
same,mortality at 90000 µg/mL,[3]; [7],100%
same,difference between insecticide-susceptible and resistant populations in response (in words),[3],significant population differences
same,mortality at 0.03 µg/mL,[4]; [8],13.9%
same,mortality at 0.3 µg/mL,[4]; [8],15.6%
same,mortality at 3 µg/mL,[4]; [8],13%
same,mortality at 30 µg/mL,[4]; [8],21.5%
same,mortality at 300 µg/mL,[4]; [8],64.1%
same,mortality at 3000 µg/mL,[4]; [8],100%
same,mortality at 30000 µg/mL,[4]; [8],100%
same,mortality at 90000 µg/mL,[4]; [8],100%
same,% Control (33 DAA2),[5]; product rate 400 mL/ha,54%
CNC(=O)CSP(=O)(OC)OC [Omethoate],mortality at 0.0029 µg/mL,[3]; [7],16.1%
same,mortality at 0.029 µg/mL,[3]; [7],18.9%
same,mortality at 0.29 µg/mL,[3]; [7],17.2%
same,mortality at 2.9 µg/mL,[3]; [7],47.5%
same,mortality at 29 µg/mL,[3]; [7],100%
same,mortality at 290 µg/mL,[3]; [7],100%
same,mortality at 2900 µg/mL,[3]; [7],100%
same,LC50,"[3]; Halotydeus destructor, 24 h",0.935 µg/mL
same,difference between insecticide-susceptible and resistant populations in response (in words),[3],no statistically significant difference
same,mortality at 0.0029 µg/mL,[4]; [8],7.6%
same,mortality at 0.029 µg/mL,[4]; [8],10.1%
same,mortality at 0.29 µg/mL,[4]; [8],32.1%
same,mortality at 2.9 µg/mL,[4]; [8],95.8%
same,mortality at 29 µg/mL,[4]; [8],100%
same,mortality at 290 µg/mL,[4]; [8],100%
same,mortality at 2900 µg/mL,[4]; [8],100%
same,LC50,[4],0.348 µg/mL
same,% Control (33 DAA2),[5]; product rate 100 mL/ha,74%
same,mortality at 0.003 µg/mL,[2]; [6],0%
same,mortality at 0.03 µg/mL,[2]; [6],2.8%
same,mortality at 0.3 µg/mL,[2]; [6],11.7%
same,mortality at 0.9 µg/mL,[2]; [6],55.3%
same,mortality at 2.9 µg/mL,[2]; [6],98.1%
same,mortality at 29 µg/mL,[2]; [6],100%
same,mortality at 290 µg/mL,[2]; [6],100%
same,mortality at 2900 µg/mL,[2]; [6],100%
same,LC50,"[2]; Halotydeus destructor, 24 h",0.681 µg/mL
Cc1c(COC(=O)[C@@H]2[C@H](/C=C(\Cl)C(F)(F)F)C2(C)C)cccc1-c1ccccc1 (racemic) [Bifenthrin],Resistance ratio,[3],265.09
same,mortality at 0.001 µg/mL,[3]; [7],4.4%
same,mortality at 0.01 µg/mL,[3]; [7],9.3%
same,mortality at 0.03 µg/mL,[3]; [7],5.8%
same,mortality at 0.1 µg/mL,[3]; [7],22.3%
same,mortality at 0.3 µg/mL,[3]; [7],44.6%
same,mortality at 1 µg/mL,[3]; [7],48.9%
same,mortality at 10 µg/mL,[3]; [7],70.9%
same,mortality at 100 µg/mL,[3]; [7],59%
same,mortality at 1000 µg/mL,[3]; [7],53.5%
same,LC50,"[3]; Halotydeus destructor, 24 h",14.1 µg/mL
same,difference between insecticide-susceptible and resistant populations in response (in words),[3],significant difference
same,mortality at 0.001 µg/mL,[4]; [8],7%
same,mortality at 0.01 µg/mL,[4]; [8],4.7%
same,mortality at 0.03 µg/mL,[4]; [8],17.4%
same,mortality at 0.1 µg/mL,[4]; [8],74.3%
same,mortality at 0.3 µg/mL,[4]; [8],98.1%
same,mortality at 1 µg/mL,[4]; [8],100%
same,mortality at 10 µg/mL,[4]; [8],100%
same,mortality at 100 µg/mL,[4]; [8],100%
same,mortality at 1000 µg/mL,[4]; [8],100%
same,LC50,[4],0.053 µg/mL
same,mortality at 0.001 µg/mL,[2]; [6],0%
same,mortality at 0.01 µg/mL,[2]; [6],0%
same,mortality at 0.1 µg/mL,[2]; [6],64.9%
same,mortality at 0.3 µg/mL,[2]; [6],98.7%
same,mortality at 1 µg/mL,[2]; [6],100%
same,mortality at 10 µg/mL,[2]; [6],100%
same,mortality at 100 µg/mL,[2]; [6],100%
same,LC50,"[2]; Halotydeus destructor, 24 h",0.085 µg/mL
